Experimental data reported in patent publication US20190374627A1, “TARGET PEPTIDES FOR CANCER THERAPY AND DIAGNOSTICS” (priority 2016, published 2019).
Square brackets hold non-standard residues; d marks the D form. Ends that are not written are not given here. pT = C[C@@H](OP(=O)(O)O)[C@H](N)C(=O)O

Experiments:
[1] = system: expanded lymphocyte cultures from deceased donor livers, cirrhotic livers and HCC; assay: ICS for MHC-I-pP reactivity of liver-derived lymphocyte cultures after phosphopeptide-specific expansion; assay type: cell-based, human
CD8^+ T cells (PBMCs) = assay: Intracellular cytokine staining (ICS) of PBMCs after 7 days of stimulation with MHC-I-pP (healthy donors, HH patients); assay type: cell-based, human
Experimental: From this, CD8^+ T cell responses against newly identified MHC class I-associated phosphopeptides in healthy individuals and patients with chronic liver disease were investigated. Twenty-one of the newly identified HCC-associated HLA-A*0201-restricted phosphopeptides were selected (see Table 17) for further immunological testing in HLA-A*0201 positive patients. MHC-I-pP-specific cytotoxic CD8^+ T cell responses (ppCTL) were assessed using intracellular cytokine staining (ICS) and several cytokines and surface markers were assessed in parallel. After 7 days of stimulation with the respective MHC-I-pP and no other cytokines, CD3- and CD8-expressing T cells were stained for at least two different cytokines (IFN-γ, TNF-α) and when required CD107a expression as a marker for their cytotoxic potential.
First, peripheral blood mononuclear cells (PBMCs) from healthy donors and patients with hereditary hemochromatosis (HH) were analyzed. HH is a chronic liver disease characterized by excessive intestinal absorption of dietary iron resulting in a pathological deposition of iron in the liver. PBMCs or lymphocytes from liver tissue were extracted and specifically stimulated with (phospho-) peptides for 7 days before intracellular cytokine staining (ICS). Doublets and dead cells, using a fixable viability dye, were excluded. Lymphocytes were gated on CD3^+ and CD8^+ double positive cells and were analysed for expression of IFNγ, TNFα-, and CD107a.

[2] = system: unexpanded lymphocyte cultures (CD8^+ T cells); assay: ICS for MHC-I-pP reactivity of lymphocyte cultures without expansion (Table 23, No Expansion); conditions: HH6

KLFPDtPLAL: ILF3 phosphopeptide, HLA-A*0201 (KLFPD[pT]PLAL; listed as Homo sapiens)
0 (<0.25% reactive CD8-+ T cells): ppCTL response, Deceased Donor Liver Do 2 ([1]; pP-specifically expanded culture, Deceased Donor Liver Do 2) | ppCTL response, Deceased Donor Liver Do 3 ([1]; pP-specifically expanded culture, Deceased Donor Liver Do 3) | ppCTL response, Deceased Donor Liver Do 4 ([1]; pP-specifically expanded culture, Deceased Donor Liver Do 4) | ppCTL response, Deceased Donor Liver Do 6 ([1]; pP-specifically expanded culture, Deceased Donor Liver Do 6) | ppCTL response, End-stage Liver Cirrhosis IHL 11 ([1]; pP-specifically expanded culture, End-stage Liver Cirrhosis IHL 11) | ppCTL response, End-stage Liver Cirrhosis IHL 13 ([1]; pP-specifically expanded culture, End-stage Liver Cirrhosis IHL 13) | ppCTL response, HCC Distal HCC 1 ([1]; pP-specifically expanded culture, HCC 1 Distal) | ppCTL response, HCC Tumor HCC 1 ([1]; pP-specifically expanded culture, HCC 1 Tumor) | ppCTL response, HCC Distal HCC 4 ([1]; pP-specifically expanded culture, HCC 4 Distal)
0 (<0.25% reactive CD8^-+ T cells): Reactive CD8^+ T cells, pP-specific Expansion, Do2 ([1]; pP-specific Expansion, Do2) | Reactive CD8^+ T cells, pP-specific Expansion, Do4 ([1]; pP-specific Expansion, Do4) | Reactive CD8^+ T cells, pP-specific Expansion, HH6 ([1]; pP-specific Expansion, HH6) | Reactive CD8^+ T cell population, HH2 (CD8^+ T cells (PBMCs); HH patient HH2) | Reactive CD8^+ T cell population, HH3 (CD8^+ T cells (PBMCs); HH patient HH3) | Reactive CD8^+ T cell population, HH8 (CD8^+ T cells (PBMCs); HH patient HH8) | Reactive CD8^+ T cell population, HH11 (CD8^+ T cells (PBMCs); HH patient HH11) | Reactive CD8^+ T cells, No Expansion, HH6 [2]
